# Experimental data: article PMC8945229, “Development and Biological Characterization of a Novel Selective TrkA Agonist with Neuroprotective Properties against Amyloid Toxicity” (Biomedicines, 2022)
# Assays:
# Erk1/2 = Erk1/2 phosphorylation in PC12 cells (Western blot); type: cell-based
# Description: For immunoprecipitation experiments PC12 or HEK293T, cells were used when at 70–80% confluent. Cells were starved of serum for 4 h and subsequently treated with 100 ng/mL NGF or 500 nM of compound ENT-A013 for 30′. Cells were then lysed in Pierce™ IP Lysis Buffer (87788, Thermo Fischer Scientific, Waltham, MA, USA) containing proteases (539138, Calbiochem, Darmstadt, Germany) and phosphatase inhibitors (524629, Calbiochem, Darmstadt, Germany). Lysates were then immunoprecipitated overnight at 4 °C with TrkA antibody (1:100, 06-574, Sigma-Aldrich, St. Louis, MO, USA) (Table S1) or p75^NTR antibody (1:100, ab6172, Abcam plc., Cambridge, UK) followed by 4 h incubation with protein G-plus agarose beads (sc-2002, Santa Cruz Biotechnology, Inc., Dallas, TX, USA). Beads were then collected, washed 3X with lysis buffer, resuspended in SDS loading buffer and subjected to Western blot against phosphorylated Tyrosine (1:1000, BAM1676, R&D Systems, Inc., Minneapolis, MN, USA) or Traf6 antibody (1:2000, ab33915, Abcam, plc., Cambridge, UK). Whole cell lysates were subjected to Western blot against TrkA (1:1000, 06-574, Sigma-Aldrich, St. Louis, MO, USA), phosphorylated TrkB (1:1000, ABN1381, Sigma-Aldrich, St. Louis, MO, USA), phosphorylated TrkC (1:1000, STJ90960, St John’s Laboratory, Ltd., London, UK), TrkB (1:1000, 07-225-I, Sigma-Aldrich, St. Louis, MO, USA), TrkC (1:1000, C44H5, Cell Signaling Technology, Danvers, MA, USA), p75 (1:1000, 839701, Biolegend, Inc., San Diego, CA, USA), Traf6 (1:2000, ab33915, Abcam, plc., Cambridge, UK) phosphorylated Akt (1:1000, 9721S, Cell Signaling Technology, Danvers, MA, USA), phosphorylated Erk1/2 (1:1000, 9101S, Cell Signaling Technology, Danvers, MA, USA), total Akt (1:1000, 4691S Cell Signaling Technology, Danvers, MA, USA) and total Erk1/2 (1:1000, 4695S, Cell Signaling Technology, Danvers, MA, USA).
# TrkC = molecular target: T1, TrkC (Homo sapiens, UniProt Q16288); test: TrkC phosphorylation in NIH-3T3 cells stably transfected with TrkC; type: cell-based; settings: 500 nM, 30′
# T1 construct: expressed in transfected cells
# Description: For immunoprecipitation experiments PC12 or HEK293T, cells were used when at 70–80% confluent. Cells were starved of serum for 4 h and subsequently treated with 100 ng/mL NGF or 500 nM of compound ENT-A013 for 30′. Cells were then lysed in Pierce™ IP Lysis Buffer (87788, Thermo Fischer Scientific, Waltham, MA, USA) containing proteases (539138, Calbiochem, Darmstadt, Germany) and phosphatase inhibitors (524629, Calbiochem, Darmstadt, Germany). Lysates were then immunoprecipitated overnight at 4 °C with TrkA antibody (1:100, 06-574, Sigma-Aldrich, St. Louis, MO, USA) (Table S1) or p75^NTR antibody (1:100, ab6172, Abcam plc., Cambridge, UK) followed by 4 h incubation with protein G-plus agarose beads (sc-2002, Santa Cruz Biotechnology, Inc., Dallas, TX, USA). Beads were then collected, washed 3X with lysis buffer, resuspended in SDS loading buffer and subjected to Western blot against phosphorylated Tyrosine (1:1000, BAM1676, R&D Systems, Inc., Minneapolis, MN, USA) or Traf6 antibody (1:2000, ab33915, Abcam, plc., Cambridge, UK). […]
# phosphorylated any of those. […] Quantification (E) […]
# Supplementary Figure S3: Primary DRG neurons were cultured in the presence of ENT-A013 (500nM, supplemented every 48hrs) and a neutralizing antibody against NGF for 5 days and then neurite length was measured by immunostaining against Tuj1 . […]
# T1 sequence (Q16288 32-839, species assumed): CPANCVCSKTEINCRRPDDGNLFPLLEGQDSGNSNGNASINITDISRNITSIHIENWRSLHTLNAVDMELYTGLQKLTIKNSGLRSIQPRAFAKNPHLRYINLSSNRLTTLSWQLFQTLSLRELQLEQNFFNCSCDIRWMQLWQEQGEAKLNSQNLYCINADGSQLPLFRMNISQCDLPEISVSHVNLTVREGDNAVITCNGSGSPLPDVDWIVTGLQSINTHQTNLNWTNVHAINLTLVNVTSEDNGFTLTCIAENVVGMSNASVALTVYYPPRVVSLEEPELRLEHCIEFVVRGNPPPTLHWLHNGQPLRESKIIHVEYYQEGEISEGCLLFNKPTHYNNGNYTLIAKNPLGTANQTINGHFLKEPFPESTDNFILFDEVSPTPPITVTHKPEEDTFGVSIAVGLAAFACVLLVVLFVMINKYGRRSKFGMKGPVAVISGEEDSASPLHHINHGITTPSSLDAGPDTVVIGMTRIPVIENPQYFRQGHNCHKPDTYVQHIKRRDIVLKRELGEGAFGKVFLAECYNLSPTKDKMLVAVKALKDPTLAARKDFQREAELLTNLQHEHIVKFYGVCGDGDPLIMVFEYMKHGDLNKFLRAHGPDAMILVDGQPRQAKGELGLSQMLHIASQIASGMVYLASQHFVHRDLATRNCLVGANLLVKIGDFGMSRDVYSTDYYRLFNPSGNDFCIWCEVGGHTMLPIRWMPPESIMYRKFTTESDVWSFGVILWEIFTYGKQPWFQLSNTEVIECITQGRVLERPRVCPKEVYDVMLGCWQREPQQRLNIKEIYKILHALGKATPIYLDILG
structure (smiles),measurement,setting,value
"CC12CCC(O)CC1=CCC1C2CCC2(C)C1CCC21CC1C=CBr [ENT-A013, (2′R,3S,17S)-2′-(2-Bromovinyl)-5-Androstene-17,1′-Cyclopropan-3-ol]",time Erk1/2 phosphorylation is sustained after treatment,Erk1/2,up to 1 hr
same,Erk1/2 phosphorylation,"Erk1/2; 500 nM, 30′",2.5 ± 0.6 % of control FC
same,TrkC phosphorylation (in words),TrkC,did not induce phosphorylation
